Laboratory results reported in patent US20240142474A1, “Opsins as Chemosensory Receptors and Related Methods” (The Regents of the University of California, priority 2021, published 2024).
“Also recorded” adds a separate entry of the source.

Experiments:
OPN3 [1] = target: T1, OPN3 (Mus musculus, UniProt Q9WUK7); assay: TANGO assay (beta-arrestin recruitment, luciferase reporter) in HTLA cells, OPN3; format: cell-based; settings: 4 hours
T1 construct: expressed in transfected cells; host or cells: HTLA cells (HEK293 line with tTA-dependent luciferase reporter and beta-arrestin2-TEV fusion)
T1 sequence (Q9WUK7 whole entry, the tested form may be a part): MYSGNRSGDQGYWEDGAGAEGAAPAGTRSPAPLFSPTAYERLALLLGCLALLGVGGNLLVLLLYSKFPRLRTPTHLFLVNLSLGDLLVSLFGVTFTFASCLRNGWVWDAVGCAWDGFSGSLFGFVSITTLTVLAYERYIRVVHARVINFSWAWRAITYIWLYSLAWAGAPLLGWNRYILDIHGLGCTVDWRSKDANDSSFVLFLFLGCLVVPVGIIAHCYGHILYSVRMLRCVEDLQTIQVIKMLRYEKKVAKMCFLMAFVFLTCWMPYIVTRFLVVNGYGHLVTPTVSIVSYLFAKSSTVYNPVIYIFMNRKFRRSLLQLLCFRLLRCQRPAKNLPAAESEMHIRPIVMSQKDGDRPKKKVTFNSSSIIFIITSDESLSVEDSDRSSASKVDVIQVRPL
From the text: (§1) For example, in one implementation the chemosensory opsin activation detection element comprises a TANGO assay (Transcriptional Activation Following Arrestin Translocation), as known in the art, for example, as described by Kroeze et al., 2015. PRESTO-Tango as an open-source resource for interrogation the druggable human GPCRome. Nat Struct Mol Biol 22, 362-369. In the TANGO systems of the invention, a cell is engineered to express a chemosensory opsin in the form of a fusion protein, wherein the opsin fusion protein comprises an optional membrane trafficking signal (e.g. HA), an optional FLAG tag or like epitope to facilitate detection, and a transcriptional activator which induces the expression of a reporter gene, such as luciferase, wherein the transcriptional activator is joined to an intracellular portion of the opsin, for example, the […], by a cleavage sequence. The cells of the TANGO system are further engineered to express a second fusion protein comprising a beta-arrestin fused to a protease, for example, a TEV protease, wherein the protease is capable of cleaving the fusion protein at the cleavage site. The cells of the TANGO system are further engineered to express a reporter protein, e.g. luciferase, under the control of a transcriptional activator, for example, tetracycline-controlled transactivaor (tTA). Ligand binding to the opsin deployed in the TANGO system triggers a conformational change in the opsin that recruits the beta arrestin-protease fusion protein to the opsin, where proximity of the protease induces cleavage of the transcriptional activator, which trafficks to the nucleus and induces the expression of the reporter gene. The TANGO system advantageously allows direct quantification of opsin activation, independent of g protein activity.
(§2) Human transcriptomics data was mined to identify putative taste receptor proteins. […] However, the role of these opsins in taste perception has not been previously explored. TANGO detection elements employing each of these opsins, in both human and mouse isoforms, were created in HTLA cells (a HEK293 cell line stably expressing a tTA-dependent luciferase reporter and a β-arrestin2-TEV fusion gene), based on protocols in Kroeze et al., 2015. PRESTO-Tango as an open-source resource for interrogation of the druggable human GPCRome. Nat Struct Mol Biol 22, 362-369.
(§3) In the TANGO assay, the mouse opsin coding sequence with an N-terminal FLAG tag was synthesized. The construct was cloned into a TANGO vector (Addgene, Waterton MA) at the ClaI site (FLAG::opsin). The HTLA cells were transfected in a 6-well format with LIPOFECTAMINE 2000™ (Thermo Fisher Scientific, Inc, Waltham MA, USA) according to the manufacturer's instructions. 6-8 hours post transfection cells weret split 1:3 and the media was switched to DMEM+ 2.5% fetal bovine serum (Thermo Fisher Scientific Inc., Waltham MA, USA). Cells were allowed to grow for 48 hours before splitting the cells onto poly-L-lysine-coated 96-well clear, flat bottom white polystyrene plates in serum-free media. The next day, chemical solutions diluted in TANGO assay buffer (20 mM HEPES, 1× HBSS, pH 7.40) were added to the cells. After 4 hours, the medium and drug solutions were removed and replaced with […] per well of BRIGHTGLO™ reagent (Promega Corporation, Madison WI) diluted 20-fold with TANGO assay buffer. Plates were incubated for 20 minutes at room temperature in the dark before measuring luminescence with a plate reader (Molecular Devices, iD3). The normalized response was calculated using following formula: RLU (relative luminescence units)=test compound RLU−average vehicle control RLU.

OPN3 knockout mice = assay: Mouse brief-access taste assay (lickometer), OPN3 knockout mice compared to wild type; format: in vivo; settings: water restricted
Protocol: Knockout mice were obtained for OPN1SW and OPN3. Two independent OPN3 knockout mice lines were tested for reaction to naringin by a mouse taste preference assay. A Lickometer device (MS-160, Di Log Instruments, Inc.,Tallahassee, FL, USA) was used to train mice and then measure their licking responses to different tastants in brief-access trials. On a given trial, each sipper tube was filled with a solution and made available to a mouse via a small port that opened to a metal/plexiglass chamber housing the animal. The mouse chamber of the lickometer was modified for these studies by adding a plexiglass barrier that restricted the free movement of animals to an approximate 10 by 15 cm area facing the fluid access port. A computer running software that communicated with the lickometer recorded tongue contacts with the metal tip of the sipper tube during licking and the time intervals (precision=1 ms) between consecutive licks (inter-lick intervals). The amount of time that the sipper tube was available through the access port could be programmed and was controlled by the opening of a normally closed, computer-actuated shutter. This feature facilitated presentation of solutions to a mouse for only a few seconds to support measurements of brief-access licking behavior. By indexing initial licking responses to stimuli over short periods, brief-access procedures intend to focus on oral sensory influences and avoid any post-ingestive effect. Groups of three to four mice were run in these studies at one time. Groups always included equal numbers of mutant and wild-type mice to control for temporal factors.
Training. Mice were restricted from drinking water for 20-22 hours prior to the onset of training. During training, experimentally naive mice learned to receive fluid in the lickometer over a 3-day period. On the first and second day of training, mice were given 30 minutes free access to a single sipper tube of water to familiarize them with accessing fluid in the lickometer device. Each 30 minute period began when the mouse made its first lick on the sipper tube; mice were allowed 30 minutes to make their first lick. On the third day of training, mice were presented with 10 second presentations (i.e., trials) of water to familiarize them with receiving and consuming fluid under a brief-access procedure in the lickometer. On each trial, the shutter that blocked access to the sipper tube was opened and mice were given 10 seconds to lick, and lick data were recorded by the lickometer computer. […]
Testing. […] For studies, individual Opn3KO, Opn1swKO, Opn4KO, Opn5KO and wild-type mice were evaluated for brief-access licking responses with different agonists. […]

TRPM5 knockout mice = assay: Mouse brief-access taste assay (lickometer), TRPM5 knockout mice compared to wild type; format: in vivo; settings: TRPM5 knockout (taste blind) mice, water restricted
OPN3 [2] = target: T2, OPN3 (Homo sapiens, UniProt Q9H1Y3); assay: Calcium flux GPCR activation assay with Fluo-8 dye, opsin-expressing HEK293T cells, OPN3; format: cell-based; settings: Fluo-8 calcium flux, data not shown
T2 construct: expressed in transfected cells; host or cells: HEK293T
T2 sequence (Q9H1Y3 whole entry): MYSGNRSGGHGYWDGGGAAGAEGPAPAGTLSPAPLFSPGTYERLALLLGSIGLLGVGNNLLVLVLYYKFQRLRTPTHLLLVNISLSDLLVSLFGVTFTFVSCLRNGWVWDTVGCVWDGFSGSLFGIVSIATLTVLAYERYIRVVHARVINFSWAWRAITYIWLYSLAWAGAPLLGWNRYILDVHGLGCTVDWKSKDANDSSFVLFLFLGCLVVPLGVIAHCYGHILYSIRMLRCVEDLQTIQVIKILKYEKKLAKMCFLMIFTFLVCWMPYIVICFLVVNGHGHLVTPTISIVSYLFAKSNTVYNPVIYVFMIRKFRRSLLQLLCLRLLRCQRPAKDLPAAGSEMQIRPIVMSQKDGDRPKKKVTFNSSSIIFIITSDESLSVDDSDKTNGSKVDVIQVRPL
Protocol: (§4) These foregoing TANTO results were further confirmed using a second, a calcium flux GPCR activation assay employing Fluo-8 dye, as follows. For this intracellular Ca^2+ measurement, opsin-expressing HEK293T cells were seeded onto 96-well plates (4×10^4 cells per well) in 100 μl of culture medium with reduced serum contents (0.5% of FBS) per well and incubated overnight under standard culture conditions. [Ca2+]i level was assessed the next day after stimulation with bitter compounds used at a different concentration with the SCREEN QUEST Fluo-8 No Wash Calcium Assay Kit (AAT Bioquest, Inc., Sunnyvale, CA, USA) according to the supplier's protocol. Calcium flux was monitored simultaneously by the change in fluorescence (Ex/Em=490/520 nm) following stimulation and with respect to the background fluorescence. [Ca^2+]i was monitored for a period of three minutes, starting before the addition of compounds to the wells and continuing during measurement of the fluorescent signal following cells' stimulation. The obtained fluorescence reads were normalized to the results obtained after stimulation of the cells with the compound solvent.

OPN1SW [3] = target: T3, OPN1SW (Homo sapiens, UniProt P03999); assay: Calcium flux GPCR activation assay with Fluo-8 dye, opsin-expressing HEK293T cells, OPN1SW; format: cell-based; settings: Fluo-8 calcium flux, data not shown
T3 construct: expressed in transfected cells; host or cells: HEK293T
T3 sequence (P03999 1-345): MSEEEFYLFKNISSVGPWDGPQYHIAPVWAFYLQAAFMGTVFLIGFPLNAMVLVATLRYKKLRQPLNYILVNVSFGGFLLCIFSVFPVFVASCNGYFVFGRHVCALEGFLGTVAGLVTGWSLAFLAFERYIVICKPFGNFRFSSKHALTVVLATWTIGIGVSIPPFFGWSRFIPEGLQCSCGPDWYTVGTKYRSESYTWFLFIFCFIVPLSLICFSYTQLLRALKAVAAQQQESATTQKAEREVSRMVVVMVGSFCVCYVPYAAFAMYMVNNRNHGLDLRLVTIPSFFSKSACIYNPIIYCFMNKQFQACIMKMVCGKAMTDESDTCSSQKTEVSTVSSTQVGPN
Protocol: as §4

OPN1SW [4] = target: T4, OPN1SW (Mus musculus, UniProt P51491); assay: TANGO assay (beta-arrestin recruitment, luciferase reporter) in HTLA cells, OPN1SW; format: cell-based; settings: 4 hours
T4 construct: expressed in transfected cells; host or cells: HTLA cells (HEK293 line with tTA-dependent luciferase reporter and beta-arrestin2-TEV fusion)
T4 sequence (P51491 1-346): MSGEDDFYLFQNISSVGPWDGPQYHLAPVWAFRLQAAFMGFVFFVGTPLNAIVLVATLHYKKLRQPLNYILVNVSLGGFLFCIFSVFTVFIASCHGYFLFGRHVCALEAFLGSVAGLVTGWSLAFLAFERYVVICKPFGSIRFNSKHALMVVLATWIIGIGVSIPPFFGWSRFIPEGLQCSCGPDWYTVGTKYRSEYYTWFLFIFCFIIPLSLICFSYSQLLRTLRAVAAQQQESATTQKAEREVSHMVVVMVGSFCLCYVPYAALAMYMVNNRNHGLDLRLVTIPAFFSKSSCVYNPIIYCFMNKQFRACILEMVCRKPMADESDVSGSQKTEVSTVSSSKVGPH
From the text: as §1, §2, §3

SMILES: C[C@@H]1O[C@@H](O[C@H]2[C@H](Oc3cc(O)c4c(c3)O[C@H](c3ccc(O)cc3)CC4=O)O[C@H](CO)[C@@H](O)[C@@H]2O)[C@H](O)[C@H](O)[C@H]1O [naringin]
- activation of OPN3, fold-change from baseline luciferase signal vs. log concentration of tastant (OPN3 [1]): activation of OPN3; also recorded: activated; also recorded: potent activator of OPN3
- aversion to the bitter flavor (lick ratio), OPN3 knockout mice compared to wild type mice (OPN3 knockout mice): reduced aversion
- aversive response to the bitter flavor (lick ratio), TRPM5 knockout mice (TRPM5 knockout mice): lost the aversive response
- activation of calcium dye OPN3 detection elements (OPN3 [2]): significantly activated in a concentration dependent manner

SMILES: Cn1cnc2c1c(=O)[nH]c(=O)n2C [theobromine]
- activation of calcium dye OPN1SW detection elements (OPN1SW [3]): significantly activated in a concentration dependent manner
- activation of OPN1SW, fold-change from baseline luciferase signal vs. log concentration of tastant (OPN1SW [4]): activated; also recorded: activation of OPN1SW
